Test results taken from publication PMC7156458, “Synthetic biology based construction of biological activity-related library of fungal decalin-containing diterpenoid pyrones” (Nature Communications, 2020).

Biological target: Aβ42 (Homo sapiens, UniProt P05067)
Assay: Th-T (thioflavin-T) assay of Aβ42 aggregation
Assay type: biochemical
Conditions: for Th-T assay plate reading, mean of three wells (Supplementary Fig. 47): source data, Ab alone and No Ab as controls

Aβ42, sequence (P05067 672-713): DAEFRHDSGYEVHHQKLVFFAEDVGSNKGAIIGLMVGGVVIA

SMILES: C=C1CCC2C(C)(CCC=C(C)C)C(=O)CCC2(C)C1Cc1c(O)c(C)c(C)oc1=O (stereo not shown) [Compound 8]
- Th-T fluorescence, mean of three wells (Aβ42 aggregation time course, reading M118): 2.194
- Th-T fluorescence, mean of three wells (Aβ42 aggregation time course, reading M119): 2.214
- Th-T fluorescence, mean of three wells (Aβ42 aggregation time course, reading M120): 2.225
- Th-T fluorescence, mean of three wells (Aβ42 aggregation time course, reading M121): 2.184
- Th-T fluorescence, mean of three wells (Aβ42 aggregation time course, reading M122): 2.1853
- Th-T fluorescence, mean of three wells (Aβ42 aggregation time course, reading M123): 2.186
- Th-T fluorescence, mean of three wells (Aβ42 aggregation time course, reading M124): 2.207
- Th-T fluorescence, mean of three wells (Aβ42 aggregation time course, reading M125): 2.241
- Th-T fluorescence, mean of three wells (Aβ42 aggregation time course, reading M126): 2.218
- Th-T fluorescence, mean of three wells (Aβ42 aggregation time course, reading M127): 2.187
- Th-T fluorescence, mean of three wells (Aβ42 aggregation time course, reading M128): 2.217
- Th-T fluorescence, mean of three wells (Aβ42 aggregation time course, reading M129): 2.196
- Th-T fluorescence, mean of three wells (Aβ42 aggregation time course, reading M130): 2.222
- Th-T fluorescence, mean of three wells (Aβ42 aggregation time course, reading M131): 2.189
- Th-T fluorescence, mean of three wells (Aβ42 aggregation time course, reading M132): 2.211
- Th-T fluorescence, mean of three wells (Aβ42 aggregation time course, reading M133): 2.1957
- Th-T fluorescence, mean of three wells (Aβ42 aggregation time course, reading M134): 2.2077
- Th-T fluorescence, mean of three wells (Aβ42 aggregation time course, reading M135): 2.191
- Th-T fluorescence, mean of three wells (Aβ42 aggregation time course, reading M136): 2.198
- Th-T fluorescence, mean of three wells (Supplementary Fig. 47, reading M138): 2.179
- Th-T fluorescence, mean of three wells (Supplementary Fig. 47, reading M139): 2.196
- Th-T fluorescence, mean of three wells (Supplementary Fig. 47, reading M140): 2.2093
- Th-T fluorescence, mean of three wells (Supplementary Fig. 47, reading M141): 2.191
- Th-T fluorescence, mean of three wells (Supplementary Fig. 47, reading M142): 2.182
- Th-T fluorescence, mean of three wells (Supplementary Fig. 47, reading M143): 2.202
- Th-T fluorescence, mean of three wells (Supplementary Fig. 47, reading M144): 2.22
- Th-T fluorescence, mean of three wells (Supplementary Fig. 47, reading M145): 2.173
- Th-T fluorescence, mean of three wells (Supplementary Fig. 47 source data, measurement M38 of time course): 2.163
- Th-T fluorescence, mean of three wells (Supplementary Fig. 47 source data, measurement M39 of time course): 2.1439
- Th-T fluorescence, mean of three wells (Supplementary Fig. 47 source data, measurement M40 of time course): 2.183
- Th-T fluorescence, mean of three wells (Supplementary Fig. 47 source data, measurement M41 of time course): 2.185
- Th-T fluorescence, mean of three wells (Supplementary Fig. 47 source data, measurement M42 of time course): 2.198
- Th-T fluorescence, mean of three wells (Supplementary Fig. 47 source data, measurement M43 of time course): 2.197
- Th-T fluorescence, mean of three wells (Supplementary Fig. 47 source data, measurement M44 of time course): 2.1886
- Th-T fluorescence, mean of three wells (Supplementary Fig. 47 source data, measurement M45 of time course): 2.191
- Th-T fluorescence, mean of three wells (Supplementary Fig. 47 source data, measurement M46 of time course): 2.181
- Th-T fluorescence, mean of three wells (Supplementary Fig. 47 source data, measurement M47 of time course): 2.191
- Th-T fluorescence, mean of three wells (Supplementary Fig. 47 source data, measurement M48 of time course): 2.202
- Th-T fluorescence, mean of three wells (Supplementary Fig. 47 source data, measurement M49 of time course): 2.2088
- Th-T fluorescence, mean of three wells (Supplementary Fig. 47 source data, measurement M50 of time course): 2.229
- Th-T fluorescence, mean of three wells (Supplementary Fig. 47 source data, measurement M51 of time course): 2.215
- Th-T fluorescence, mean of three wells (Supplementary Fig. 47 source data, measurement M52 of time course): 2.214
- Th-T fluorescence, mean of three wells (Supplementary Fig. 47 source data, measurement M53 of time course): 2.236
- Th-T fluorescence, mean of three wells (Supplementary Fig. 47 source data, measurement M54 of time course): 2.223
- Th-T fluorescence, mean of three wells (Supplementary Fig. 47 source data, measurement M55 of time course): 2.205
- Th-T fluorescence, mean of three wells (Supplementary Fig. 47 source data, measurement M56 of time course): 2.204
- Th-T assay plate reading, mean of three wells (Supplementary Fig. 47) (measurement M2): 0.2095
- Th-T assay plate reading, mean of three wells (Supplementary Fig. 47) (measurement M3): 0.2324
- Th-T assay plate reading, mean of three wells (Supplementary Fig. 47) (measurement M4): 0.2683
- Th-T assay plate reading, mean of three wells (Supplementary Fig. 47) (measurement M5): 0.2913
- Th-T assay plate reading, mean of three wells (Supplementary Fig. 47) (measurement M6): 0.3294
- Th-T assay plate reading, mean of three wells (Supplementary Fig. 47) (measurement M7): 0.3614
- Th-T assay plate reading, mean of three wells (Supplementary Fig. 47) (measurement M8): 0.4027
- Th-T assay plate reading, mean of three wells (Supplementary Fig. 47) (measurement M9): 0.444
- Th-T assay plate reading, mean of three wells (Supplementary Fig. 47) (measurement M10): 0.4702
- Th-T assay plate reading, mean of three wells (Supplementary Fig. 47) (measurement M11): 0.5005
- Th-T assay plate reading, mean of three wells (Supplementary Fig. 47) (measurement M12): 0.5205
- Th-T assay plate reading, mean of three wells (Supplementary Fig. 47) (measurement M13): 0.553
- Th-T assay plate reading, mean of three wells (Supplementary Fig. 47) (measurement M14): 0.605
- Th-T assay plate reading, mean of three wells (Supplementary Fig. 47) (measurement M15): 0.733
- Th-T assay plate reading, mean of three wells (Supplementary Fig. 47) (measurement M16): 0.9658
- Th-T fluorescence, mean of three wells (reading M18, Supplementary Fig. 47 source data): 1.528
- Th-T fluorescence, mean of three wells (reading M19, Supplementary Fig. 47 source data): 1.697
- Th-T fluorescence, mean of three wells (reading M20, Supplementary Fig. 47 source data): 1.804
- Th-T fluorescence, mean of three wells (reading M21, Supplementary Fig. 47 source data): 1.844
- Th-T fluorescence, mean of three wells (reading M22, Supplementary Fig. 47 source data): 1.86
- Th-T fluorescence, mean of three wells (reading M23, Supplementary Fig. 47 source data): 1.891
- Th-T fluorescence, mean of three wells (reading M24, Supplementary Fig. 47 source data): 1.925
- Th-T fluorescence, mean of three wells (reading M25, Supplementary Fig. 47 source data): 1.959
- Th-T fluorescence, mean of three wells (reading M26, Supplementary Fig. 47 source data): 2.003
- Th-T fluorescence, mean of three wells (reading M27, Supplementary Fig. 47 source data): 2.003
- Th-T fluorescence, mean of three wells (reading M28, Supplementary Fig. 47 source data): 2.0134
- Th-T fluorescence, mean of three wells (reading M29, Supplementary Fig. 47 source data): 2.048
- Th-T fluorescence, mean of three wells (reading M30, Supplementary Fig. 47 source data): 2.063
- Th-T fluorescence, mean of three wells (reading M31, Supplementary Fig. 47 source data): 2.093
- Th-T fluorescence, mean of three wells (reading M32, Supplementary Fig. 47 source data): 2.109
- Th-T fluorescence, mean of three wells (reading M33, Supplementary Fig. 47 source data): 2.135
- Th-T fluorescence, mean of three wells (reading M34, Supplementary Fig. 47 source data): 2.108
- Th-T fluorescence, mean of three wells (reading M35, Supplementary Fig. 47 source data): 2.139
- Th-T fluorescence, mean of three wells (reading M36, Supplementary Fig. 47 source data): 2.159
- Th-T fluorescence, mean of three wells (time course, reading M58): 2.216
- Th-T fluorescence, mean of three wells (time course, reading M59): 2.2236
- Th-T fluorescence, mean of three wells (time course, reading M60): 2.219
- Th-T fluorescence, mean of three wells (time course, reading M61): 2.226
- Th-T fluorescence, mean of three wells (time course, reading M62): 2.227
- Th-T fluorescence, mean of three wells (time course, reading M63): 2.25
- Th-T fluorescence, mean of three wells (time course, reading M64): 2.223
- Th-T fluorescence, mean of three wells (time course, reading M65): 2.24
- Th-T fluorescence, mean of three wells (time course, reading M66): 2.247
- Th-T fluorescence, mean of three wells (time course, reading M67): 2.214
- Th-T fluorescence, mean of three wells (time course, reading M68): 2.201
- Th-T fluorescence, mean of three wells (time course, reading M69): 2.2304
- Th-T fluorescence, mean of three wells (time course, reading M70): 2.212
- Th-T fluorescence, mean of three wells (time course, reading M71): 2.214
- Th-T fluorescence, mean of three wells (time course, reading M72): 2.213
- Th-T fluorescence, mean of three wells (time course, reading M73): 2.224
- Th-T fluorescence, mean of three wells (time-course reading M98, Supplementary Fig. 47 source data): 2.211
- Th-T fluorescence, mean of three wells (time-course reading M99, Supplementary Fig. 47 source data): 2.236
- Th-T fluorescence, mean of three wells (time-course reading M100, Supplementary Fig. 47 source data): 2.235
- Th-T fluorescence, mean of three wells (time-course reading M101, Supplementary Fig. 47 source data): 2.216
- Th-T fluorescence, mean of three wells (time-course reading M102, Supplementary Fig. 47 source data): 2.236
- Th-T fluorescence, mean of three wells (time-course reading M103, Supplementary Fig. 47 source data): 2.209
- Th-T fluorescence, mean of three wells (time-course reading M104, Supplementary Fig. 47 source data): 2.206
- Th-T fluorescence, mean of three wells (time-course reading M105, Supplementary Fig. 47 source data): 2.201
- Th-T fluorescence, mean of three wells (time-course reading M106, Supplementary Fig. 47 source data): 2.237
- Th-T fluorescence, mean of three wells (time-course reading M107, Supplementary Fig. 47 source data): 2.2129
- Th-T fluorescence, mean of three wells (time-course reading M108, Supplementary Fig. 47 source data): 2.1995
- Th-T fluorescence, mean of three wells (time-course reading M109, Supplementary Fig. 47 source data): 2.203
- Th-T fluorescence, mean of three wells (time-course reading M110, Supplementary Fig. 47 source data): 2.217
- Th-T fluorescence, mean of three wells (time-course reading M111, Supplementary Fig. 47 source data): 2.201
- Th-T fluorescence, mean of three wells (time-course reading M112, Supplementary Fig. 47 source data): 2.214
- Th-T fluorescence, mean of three wells (time-course reading M113, Supplementary Fig. 47 source data): 2.2232
- Th-T fluorescence, mean of three wells (time-course reading M114, Supplementary Fig. 47 source data): 2.196
- Th-T fluorescence, mean of three wells (time-course reading M115, Supplementary Fig. 47 source data): 2.1937
- Th-T fluorescence, mean of three wells (time-course reading M116, Supplementary Fig. 47 source data): 2.237
